The conditions of series [1]: 298.15 K; 101.33 kPa; Liquid; Pycnometric method.
Series [2] in a line: refractive index (Na D-line) (dimensionless). Conditions: 298.15 K; 101.33 kPa; Liquid; Standard Abbe refractometry.

± gives the expanded uncertainty stated by the source.

A word on the mass density: it is mass per unit of volume. As usually defined, the refractive index is a measure of how strongly the sample bends light.

`CCCCCCC` [heptane]: in series [1], the mass density was 679.53 ± 0.65 kg/m3. Moreover, the refractive index in series [2] is 1.3852 ± 0.0008.

These data come from the NIST ThermoML archive (doi:10.1016/j.jct.2008.10.010).
